Test results from US9351960B2 (priority 2012, dated 2016).

Test system: cytopathogenic HCV variant C-13
Assay: Antiviral activity in pig embryonic kidney cell (SPEV) cultures infected with HCV
Experimental: Infectious HCV doses used were equal to 10.0 tissue cytopathogenic doses (TCID50)/20 μL.
The used primary fibroblasts highly sensitive to cytopathogenic action of HCV were obtained after trypsinization of 9-day-old chick embryos (FEC), and the used pig embryonic kidney cell (SPEV) cultures were obtained from the Collection of Cell Cultures of the Institute of Virology RAMS. They were used in the form of a one-day cell monolayer grown in 24-well plastic plates. The SPEV and FEC cell cultures were cultured in medium 199 with 10% fetal calf serum, supplemented with glutamine and antibiotics (100 U/ml).
To study the antiviral activity of the drug, a 50 μL of a solution thereof taken in various dilutions were added to the FEC cultures at the time of infection, 24 hours before and 24 hours after infection of the cells.
The infectious activity of HCV was assessed according to the results of titration of fluid samples in the SPEV cell cultures, wherein the culture fluids were derived from the HCV-infected FEC or SPEV cultures on 2 and 5 days after infection. The results were usually registered 6 or 7 days after infection, when the viral cytopathic effect reached its maximum, using the Reed and Muench formula to determine HCV titers.
Samples of the culture medium were taken on Day 3, Day 4 and Day 5 after infection and titrated in fresh SPEV cell cultures.

Which results are given for `O=C(O)CCCC(=O)NCCc1c[nH]cn1` [glutaryl histamine]?
HCV titers (lg TCID50 for SPEV cell cultures) in medium samples (SPEV, Day 3, 0.005 μg/mL, treatment 24 hours after infection): 0 lg TCID50; HCV titers (lg TCID50 for SPEV cell cultures) in medium samples (SPEV, Day 3, 0.005 μg/mL, treatment 24 hours before infection): 3.0 lg TCID50; HCV titers (lg TCID50 for SPEV cell cultures) in medium samples (SPEV, Day 3, 0.005 μg/mL, treatment at the time of infection): 3.3 lg TCID50; HCV titers (lg TCID50 for SPEV cell cultures) in medium samples (SPEV, Day 3, 0.05 μg/mL, treatment 24 hours after infection): <1.0 lg TCID50; HCV titers (lg TCID50 for SPEV cell cultures) in medium samples (SPEV, Day 3, 0.05 μg/mL, treatment 24 hours before infection): 3.2 lg TCID50; HCV titers (lg TCID50 for SPEV cell cultures) in medium samples (SPEV, Day 3, 0.05 μg/mL, treatment at the time of infection): 3.3 lg TCID50; HCV titers (lg TCID50 for SPEV cell cultures) in medium samples (SPEV, Day 3, 0.5 μg/mL, treatment 24 hours after infection): 0 lg TCID50; HCV titers (lg TCID50 for SPEV cell cultures) in medium samples (SPEV, Day 3, 0.5 μg/mL, treatment 24 hours before infection): 3.2 lg TCID50; HCV titers (lg TCID50 for SPEV cell cultures) in medium samples (SPEV, Day 3, 0.5 μg/mL, treatment at the time of infection): 3.3 lg TCID50; HCV titers (lg TCID50 for SPEV cell cultures) in medium samples (SPEV, Day 3, 5.0 μg/mL, treatment 24 hours after infection): 0 lg TCID50; HCV titers (lg TCID50 for SPEV cell cultures) in medium samples (SPEV, Day 3, 5.0 μg/mL, treatment 24 hours before infection): 3.5 lg TCID50; HCV titers (lg TCID50 for SPEV cell cultures) in medium samples (SPEV, Day 3, 5.0 μg/mL, treatment at the time of infection): 2.3 lg TCID50; HCV titers (lg TCID50 for SPEV cell cultures) in medium samples (SPEV, Day 3, 50.0 μg/mL, treatment 24 hours after infection): 1.25 lg TCID50; HCV titers (lg TCID50 for SPEV cell cultures) in medium samples (SPEV, Day 3, 50.0 μg/mL, treatment 24 hours before infection): 3.5 lg TCID50; HCV titers (lg TCID50 for SPEV cell cultures) in medium samples (SPEV, Day 3, 50.0 μg/mL, treatment at the time of infection): 3.5 lg TCID50; HCV titers (lg TCID50 for SPEV cell cultures) in medium samples (SPEV, Day 3, 500.0 μg/mL, treatment 24 hours after infection): 0 lg TCID50; HCV titers (lg TCID50 for SPEV cell cultures) in medium samples (SPEV, Day 3, 500.0 μg/mL, treatment 24 hours before infection): 3.5 lg TCID50; HCV titers (lg TCID50 for SPEV cell cultures) in medium samples (SPEV, Day 3, 500.0 μg/mL, treatment at the time of infection): 3.0 lg TCID50; HCV titers (lg TCID50 for SPEV cell cultures) in medium samples (SPEV, Day 4, 0.005 μg/mL, treatment 24 hours after infection): 0 lg TCID50; HCV titers (lg TCID50 for SPEV cell cultures) in medium samples (SPEV, Day 4, 0.005 μg/mL, treatment 24 hours before infection): 3.4 lg TCID50; HCV titers (lg TCID50 for SPEV cell cultures) in medium samples (SPEV, Day 4, 0.005 μg/mL, treatment at the time of infection): 4.1 lg TCID50; HCV titers (lg TCID50 for SPEV cell cultures) in medium samples (SPEV, Day 4, 0.05 μg/mL, treatment 24 hours after infection): 1.3 lg TCID50; HCV titers (lg TCID50 for SPEV cell cultures) in medium samples (SPEV, Day 4, 0.05 μg/mL, treatment 24 hours before infection): 3.0 lg TCID50; HCV titers (lg TCID50 for SPEV cell cultures) in medium samples (SPEV, Day 4, 0.05 μg/mL, treatment at the time of infection): 4.4 lg TCID50; HCV titers (lg TCID50 for SPEV cell cultures) in medium samples (SPEV, Day 4, 0.5 μg/mL, treatment 24 hours after infection): 0 lg TCID50; HCV titers (lg TCID50 for SPEV cell cultures) in medium samples (SPEV, Day 4, 0.5 μg/mL, treatment 24 hours before infection): 3.8 lg TCID50; HCV titers (lg TCID50 for SPEV cell cultures) in medium samples (SPEV, Day 4, 0.5 μg/mL, treatment at the time of infection): 4.1 lg TCID50; HCV titers (lg TCID50 for SPEV cell cultures) in medium samples (SPEV, Day 4, 5.0 μg/mL, treatment 24 hours after infection): 0 lg TCID50; HCV titers (lg TCID50 for SPEV cell cultures) in medium samples (SPEV, Day 4, 5.0 μg/mL, treatment 24 hours before infection): 3.4 lg TCID50; HCV titers (lg TCID50 for SPEV cell cultures) in medium samples (SPEV, Day 4, 5.0 μg/mL, treatment at the time of infection): 5.5 lg TCID50; HCV titers (lg TCID50 for SPEV cell cultures) in medium samples (SPEV, Day 4, 50.0 μg/mL, treatment 24 hours after infection): 2.6 lg TCID50; HCV titers (lg TCID50 for SPEV cell cultures) in medium samples (SPEV, Day 4, 50.0 μg/mL, treatment 24 hours before infection): 3.8 lg TCID50; HCV titers (lg TCID50 for SPEV cell cultures) in medium samples (SPEV, Day 4, 50.0 μg/mL, treatment at the time of infection): 5.0 lg TCID50; HCV titers (lg TCID50 for SPEV cell cultures) in medium samples (SPEV, Day 4, 500.0 μg/mL, treatment 24 hours after infection): 0 lg TCID50; HCV titers (lg TCID50 for SPEV cell cultures) in medium samples (SPEV, Day 4, 500.0 μg/mL, treatment 24 hours before infection): 3.8 lg TCID50; HCV titers (lg TCID50 for SPEV cell cultures) in medium samples (SPEV, Day 4, 500.0 μg/mL, treatment at the time of infection): 4.2 lg TCID50; HCV titers (lg TCID50 for SPEV cell cultures) in medium samples (SPEV, Day 5, 0.005 μg/mL, treatment 24 hours after infection): 0 lg TCID50; HCV titers (lg TCID50 for SPEV cell cultures) in medium samples (SPEV, Day 5, 0.005 μg/mL, treatment 24 hours before infection): 4.5 lg TCID50; HCV titers (lg TCID50 for SPEV cell cultures) in medium samples (SPEV, Day 5, 0.005 μg/mL, treatment at the time of infection): 5.5 lg TCID50; HCV titers (lg TCID50 for SPEV cell cultures) in medium samples (SPEV, Day 5, 0.05 μg/mL, treatment 24 hours after infection): 1.8 lg TCID50; HCV titers (lg TCID50 for SPEV cell cultures) in medium samples (SPEV, Day 5, 0.05 μg/mL, treatment 24 hours before infection): 4.5 lg TCID50; HCV titers (lg TCID50 for SPEV cell cultures) in medium samples (SPEV, Day 5, 0.05 μg/mL, treatment at the time of infection): 5.0 lg TCID50; HCV titers (lg TCID50 for SPEV cell cultures) in medium samples (SPEV, Day 5, 0.5 μg/mL, treatment 24 hours after infection): 0 lg TCID50; HCV titers (lg TCID50 for SPEV cell cultures) in medium samples (SPEV, Day 5, 0.5 μg/mL, treatment 24 hours before infection): 4.5 lg TCID50; HCV titers (lg TCID50 for SPEV cell cultures) in medium samples (SPEV, Day 5, 0.5 μg/mL, treatment at the time of infection): 5.5 lg TCID50; HCV titers (lg TCID50 for SPEV cell cultures) in medium samples (SPEV, Day 5, 5.0 μg/mL, treatment 24 hours after infection): 0 lg TCID50; HCV titers (lg TCID50 for SPEV cell cultures) in medium samples (SPEV, Day 5, 5.0 μg/mL, treatment 24 hours before infection): 4.5 lg TCID50; HCV titers (lg TCID50 for SPEV cell cultures) in medium samples (SPEV, Day 5, 5.0 μg/mL, treatment at the time of infection): 5.5 lg TCID50; HCV titers (lg TCID50 for SPEV cell cultures) in medium samples (SPEV, Day 5, 50.0 μg/mL, treatment 24 hours after infection): 2.8 lg TCID50; HCV titers (lg TCID50 for SPEV cell cultures) in medium samples (SPEV, Day 5, 50.0 μg/mL, treatment 24 hours before infection): 4.5 lg TCID50; HCV titers (lg TCID50 for SPEV cell cultures) in medium samples (SPEV, Day 5, 50.0 μg/mL, treatment at the time of infection): 7.0 lg TCID50; HCV titers (lg TCID50 for SPEV cell cultures) in medium samples (SPEV, Day 5, 500.0 μg/mL, treatment 24 hours after infection): 0 lg TCID50; HCV titers (lg TCID50 for SPEV cell cultures) in medium samples (SPEV, Day 5, 500.0 μg/mL, treatment 24 hours before infection): 6.0 lg TCID50; HCV titers (lg TCID50 for SPEV cell cultures) in medium samples (SPEV, Day 5, 500.0 μg/mL, treatment at the time of infection): 5.5 lg TCID50; suppression of HCV infectious activity (SPEV, Day 5 after infection and simultaneous treatment of the cells): 2.2-2.7 lg TCID50/20 μg; suppression of the production of HCV compared with the control (SPEV, medium collected on Day 5 after infection): 2.2 lg TCID50/20 μg; HCV replication in SPEV cell cultures (added to the cultures 24 hours after infection): significantly suppresses
